According to PubChem BioAssay AID2060484 (Molecular Pharmacology Branch, DTP, NCI, 2025):
Several values for one entry are separate records, joined by “and”; a condition that tells them apart may be missing. Equal values may be shown once.

System: SUM149PT spheroids with HUVEC/MSC, viability
Test: Anticancer human tumor SUM149PT cell line growth inhibition [GQUAD];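 also: spheroids exposed to drugs for seven days before readout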;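 as to viability, T/C: percent viability relative to DMSO vehicle control taken as 100%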
Details: for viability, T/C: stronger effect = lower value
Text: DNA G-quadruplex Stabilizer Agents in Combinations in Complex Spheroids
A high-throughput screen of multi-cell type tumor spheroids was designed to identify active combinations of DNA G-quadruplex stabilizer agents and targeted small molecules. Complex spheroids include a stromal component modeled by human endothelial cells (HUVEC) and fibroblasts modeled by human mesenchymal stem cells (MSCs). The concentration ranges selected for each drug and investigational agent were based upon clinically achievable concentrations if the clinical Cmax of the agent was known.
Compounds. The drugs and investigational agents: pidnarulex (CX-5461; NSC782164), APTO-253 (NSC789042), BRACO-19 (NSC847499), peposertib (NSC802822), ceralasertib (NSC780249), elimusertib (NSC800525), camonsertib (NSC841442), AZD-1390 (NSC803789), olaparib (NSC753686), talazoparib (NSC767125), ART-558 (NSC835418), sotorasib (NSC818433), MRTX-1133 (NSC836407), SN-38 (NSC673596), topotecan (NSC609699), etoposide (NSC141540), doxorubicin (NSC123127), gemcitabine (NSC613327), 5-fluorouracil (NSC19893), paclitaxel (NSC125973), vemurafenib (NSC761431), panobinostat (NSC761190), R-306465 (JNJ-16241199; NSC773264), adavosertib (NSC754352), TP-3654 (NSC805149), carboplatin (NSC241240), KSQ-4279 (NSC840948), and staurosporine (NSC755774) were obtained from the National Cancer Institute (NCI) Developmental Therapeutics Program Chemical Repository (34). The FDA-approved anticancer drug set is available from the NCI Developmental Therapeutics Program. […] The stock solutions were prepared in dimethyl sulfoxide (DMSO, Sigma-Aldrich, St. Louis, MO, cat. D2650) at 800-fold the tested concentration and stored at -70 degrees C prior to their use. All drugs and investigational agents were tested over a range starting from a high concentration at or near the clinical Cmax and decreasing in half-log increments. If the clinical Cmax for an agent had not been determined, the highest concentration tested was 10 microM.
2.3 Cell Culture. All cells were maintained in an incubator at 37 degrees C and 5% CO2 with 95% humidity. The PDC lines were cultured according to standard operating procedures established by the NCI PDMR. All PDCs were thawed and cultured in Matrigel-coated flasks prepared with a working solution of 1X Ham's F-12 nutrient mix, without supplementation (Invitrogen, cat. 11765054), 100 U/mL penicillin-streptomycin (Invitrogen, cat. 15140122), and 2.5% Matrigel (Corning Inc., cat. 354248) for the first three passages. The 857933-349-R-J2-PDC line was cultured in 6C/Colon 1B media, which includes advanced DMEM/F-12 (Thermo Fisher Scientific, cat. 12634028), 10 mM HEPES (Thermo Fisher Scientific, cat. 15630080), 1X GlutaMAX supplement (Thermo Fisher Scientific, cat. 35050061), 0.1 mg/mL primocin (InvivoGen, cat. ant-pm-2), 10% defined fetal bovine serum, heat inactivated (HyClone Laboratories Inc., cat. SH30070.03HI), 50% L-WRN conditioned media (ATCC, cat. CRL-3276), 1.25 mM N-Acetyl-L-cysteine (Sigma-Aldrich, cat. A9165), 10 mM nicotinamide (Sigma-Aldrich, cat. N0636), 1X B-27 supplement (Thermo Fisher Scientific, cat. 17504044), 1X N-2 supplement (Thermo Fisher Scientific, cat. 17502048), 10 microM Y-27632 dihydrochloride (Tocris Bioscience, cat. 1254), and 50 ng/mL human EGF recombinant protein (Thermo Fisher Scientific, cat. PHG0311). The 485176-168-R4-J1-PDC line was cultured in Panc media, which includes all 6C/Colon 1B media components plus 100 ng/mL human FGF-10 (Thermo Fisher Scientific, cat. 100-26), 500 nM SB-431542 (Selleckchem, cat. S1067), and gastrin (Tocris, cat. 3006).
[…]

[1] = curve of first compound, second compound 0.0316 µM
[2] = curve of first compound, second compound 0.1 µM
[3] = curve of first compound, second compound 0.316 µM
[4] = curve of first compound, second compound 1 µM
[5] = curve of first compound, second compound 3.16 µM
[6] = curve of first compound, second compound 10 µM
[7] = second compound 0.0316 µM, first compound 0.0316 µM
[8] = second compound 0.0316 µM, first compound 0.1 µM
[9] = second compound 0.0316 µM, first compound 0.316 µM
[10] = second compound 0.0316 µM, first compound 1 µM
[11] = second compound 0.0316 µM, first compound 3.16 µM
[12] = second compound 0.0316 µM, first compound 10 µM
[13] = second compound 0.1 µM, first compound 0.0316 µM
[14] = second compound 0.1 µM, first compound 0.1 µM
[15] = second compound 0.1 µM, first compound 0.316 µM
[16] = second compound 0.1 µM, first compound 1 µM
[17] = second compound 0.1 µM, first compound 3.16 µM
[18] = second compound 0.1 µM, first compound 10 µM
[19] = second compound 0.316 µM, first compound 0.0316 µM
[20] = second compound 0.316 µM, first compound 0.1 µM
[21] = second compound 0.316 µM, first compound 0.316 µM
[22] = second compound 0.316 µM, first compound 1 µM
[23] = second compound 0.316 µM, first compound 3.16 µM
[24] = second compound 0.316 µM, first compound 10 µM
[25] = second compound 1 µM, first compound 0.0316 µM
[26] = second compound 1 µM, first compound 0.1 µM
[27] = second compound 1 µM, first compound 0.316 µM
[28] = second compound 1 µM, first compound 1 µM
[29] = second compound 1 µM, first compound 3.16 µM
[30] = second compound 1 µM, first compound 10 µM
[31] = second compound 3.16 µM, first compound 0.0316 µM
[32] = second compound 3.16 µM, first compound 0.1 µM
[33] = second compound 3.16 µM, first compound 0.316 µM
[34] = second compound 3.16 µM, first compound 1 µM
[35] = second compound 3.16 µM, first compound 3.16 µM
[36] = second compound 3.16 µM, first compound 10 µM
[37] = second compound 10 µM, first compound 0.0316 µM
[38] = second compound 10 µM, first compound 0.1 µM
[39] = second compound 10 µM, first compound 0.316 µM
[40] = second compound 10 µM, first compound 1 µM
[41] = second compound 10 µM, first compound 3.16 µM
[42] = second compound 10 µM, first compound 10 µM

## COc1cccc2c1C(=O)c1c(O)c3c(c(O)c1C2=O)CC(O)(C(=O)CO)CC3OC1CC(N)C(O)C(C)O1 (stereo not drawn)
Compound 0.0316 µM
  viability, T/C: 89.5% and 100% and 94%
Compound 0.1 µM
  viability, T/C: 56.8% and 67.1% and 55.3%
Compound 0.316 µM
  viability, T/C: 39.5% and 52.4% and 38.2%
Compound 1 µM
  viability, T/C: 16.9% and 25.1% and 15.2%
Compound 3.16 µM
  viability, T/C: 1.91% and 4.16% and 1.88%
Compound 10 µM
  viability, T/C: 1.41% and 1.73% and 1.61%
Curve of compound
  IC50: 0.159 µM and 0.27 µM and 0.147 µM

## CCc1c2c(nc3ccc(O)cc13)-c1cc3c(c(=O)n1C2)COC(=O)[C@]3(O)CC
Compound 0.000999 µM
  viability, T/C: 65.9% and 72.5% and 67.1%
Compound 0.00316 µM
  viability, T/C: 36% and 43.4% and 27.6%
Compound 0.00999 µM
  viability, T/C: 44% and 61.2% and 38.6%
Compound 0.0316 µM
  viability, T/C: 36% and 47.2% and 30.2%
Compound 0.0999 µM
  viability, T/C: 27% and 38.1% and 23.1%
Compound 0.316 µM
  viability, T/C: 16.4% and 21.9% and 12.8%

## CC(C)(O)C1CCC(Nc2ccc3ncc(-c4cccc(C(F)(F)F)c4)n3n2)CC1 (stereo not drawn) + Cc1[nH]c2ccc(F)cc2c1-c1nc2c3cccnc3c3ncccc3c2[nH]1
[1]
  IC50: 5.92 µM
[2]
  IC50: > 10 µM
[3]
  IC50: 3.81 µM
[4]
  IC50: 7.9 µM
[5]
  IC50: 2.36 µM
[6]
  IC50: 1.91 µM
[7]
  viability, T/C: 103%
[8]
  viability, T/C: 96.5%
[9]
  viability, T/C: 80.2%
[10]
  viability, T/C: 63.9%
[11]
  viability, T/C: 44.6%
[12]
  viability, T/C: 53.3%
[13]
  viability, T/C: 90.9%
[14]
  viability, T/C: 90.4%
[15]
  viability, T/C: 84.2%
[16]
  viability, T/C: 67.4%
[17]
  viability, T/C: 51%
[18]
  viability, T/C: 55.9%
[19]
  viability, T/C: 105%
[20]
  viability, T/C: 97.7%
[21]
  viability, T/C: 85.5%
[22]
  viability, T/C: 68.8%
[23]
  viability, T/C: 43.3%
[24]
  viability, T/C: 51%
[25]
  viability, T/C: 97.4%
[26]
  viability, T/C: 96.4%
[27]
  viability, T/C: 89.2%
[28]
  viability, T/C: 68%
[29]
  viability, T/C: 47.4%
[30]
  viability, T/C: 52.9%
[31]
  viability, T/C: 95.5%
[32]
  viability, T/C: 81.5%
[33]
  viability, T/C: 85.4%
[34]
  viability, T/C: 70%
[35]
  viability, T/C: 40%
[36]
  viability, T/C: 46.3%
[37]
  viability, T/C: 99%
[38]
  viability, T/C: 87.5%
[39]
  viability, T/C: 79.7%
[40]
  viability, T/C: 59.9%
[41]
  viability, T/C: 38.5%
[42]
  viability, T/C: 43.1%

## Cc1cccc(N(C)C(=O)C2C(O)CCN2c2nc(C)cc(C(F)(F)F)c2C#N)c1 (stereo not drawn)
Compound 0.0316 µM
  viability, T/C: 104% and 99.7% and 111%
Compound 0.1 µM
  viability, T/C: 97.8% and 92.2% and 88.8%
Compound 0.316 µM
  viability, T/C: 82.7% and 99.5% and 103%
Compound 1 µM
  viability, T/C: 89% and 97.5% and 98.3%
Compound 3.16 µM
  viability, T/C: 102% and 110% and 105%
Compound 10 µM
  viability, T/C: 103% and 108% and 100%
Curve of compound
  IC50: > 10 µM

## CN(C)c1ccc(Nc2c3ccc(NC(=O)CCN4CCCC4)cc3nc3cc(NC(=O)CCN4CCCC4)ccc23)cc1
Compound 0.0316 µM
  viability, T/C: 102% [middle of 12 runs]
Compound 0.1 µM
  viability, T/C: 101% [middle of 12 runs]
Compound 0.316 µM
  viability, T/C: 99.9% [middle of 11 runs]
Compound 1 µM
  viability, T/C: 90% [middle of 12 runs]
Compound 3.16 µM
  viability, T/C: 86.2% [middle of 12 runs]
Compound 10 µM
  viability, T/C: 86% [middle of 12 runs]
Compound alone, run of 03/26/2024
  IC50: > 10 µM

## O=c1[nH]cc(F)c(=O)[nH]1 + Cc1[nH]c2ccc(F)cc2c1-c1nc2c3cccnc3c3ncccc3c2[nH]1
[1]
  IC50: 7.57 µM
[2]
  IC50: 6.93 µM
[3]
  IC50: > 10 µM
[4]
  IC50: 7.58 µM
[5]
  IC50: 5.27 µM
[6]
  IC50: 3.52 µM
[7]
  viability, T/C: 103%
[8]
  viability, T/C: 97.3%
[9]
  viability, T/C: 107%
[10]
  viability, T/C: 95.6%
[11]
  viability, T/C: 57.8%
[12]
  viability, T/C: 47.5%
[13]
  viability, T/C: 104%
[14]
  viability, T/C: 101%
[15]
  viability, T/C: 108%
[16]
  viability, T/C: 111%
[17]
  viability, T/C: 58.3%
[18]
  viability, T/C: 46.1%
[19]
  viability, T/C: 99.6%
[20]
  viability, T/C: 104%
[21]
  viability, T/C: 97.7%
[22]
  viability, T/C: 102%
[23]
  viability, T/C: 61.9%
[24]
  viability, T/C: 48.5%
[25]
  viability, T/C: 103%
[26]
  viability, T/C: 107%
[27]
  viability, T/C: 98.4%
[28]
  viability, T/C: 110%
[29]
  viability, T/C: 63.9%
[30]
  viability, T/C: 45.6%
[31]
  viability, T/C: 97.5%
[32]
  viability, T/C: 98.1%
[33]
  viability, T/C: 102%
[34]
  viability, T/C: 103%
[35]
  viability, T/C: 56.2%
[36]
  viability, T/C: 42.1%
[37]
  viability, T/C: 79.9%
[38]
  viability, T/C: 85.1%
[39]
  viability, T/C: 101%
[40]
  viability, T/C: 99.5%
[41]
  viability, T/C: 51.2%
[42]
  viability, T/C: 37.2%

## COc1ncnc(C2CC2)c1-c1ncc2cnn(Cc3ccc(-c4nc(C(F)(F)F)cn4C(C)C)cc3)c2n1
Compound 0.0316 µM
  viability, T/C: 97.5% and 104% and 97.6%
Compound 0.1 µM
  viability, T/C: 74.3% and 85.3% and 87.7%
Compound 0.316 µM
  viability, T/C: 88.8% and 90.9% and 90.6%
Compound 1 µM
  viability, T/C: 76% and 81.9% and 80.4%
Compound 3.16 µM
  viability, T/C: 89.2% and 95.1% and 95.5%
Compound 10 µM
  viability, T/C: 95.5% and 94.5% and 101%
Curve of compound
  IC50: > 10 µM
